Data: EP4707280A1, “1,4-CINEOLE DERIVATIVE AND INTERMEDIATE THEREOF, HERBICIDE CONTAINING SAID DERIVATIVE AS ACTIVE INGREDIENT, METHOD FOR USING HERBICIDE, AND METHOD FOR PREPARING AGROCHEMICAL COMPOSITION” (HOKKO CHEMICAL INDUSTRY CO., LTD., priority 2023, dated 2024)

Experiments:
Format in all cases: in vivo
Amaranthus viridis = experiment: Test Example 3: herbicidal effect test by soil application in upland field; conditions: 120 g per 10 ares, sprayed one day after sowing, 14 days after application; for inhibition at 1200 g/ha: Amaranthus viridis, read-out: weed inhibition rate
Outline: (§1)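 Pre-emergence test: seeds mixed into top 1 cm of alluvial loam upland soil in pots; emulsifiable concentrate diluted in water sprayed on soil one day after sowing at 100 L/10 a, 120 g a.i./10 a. Weed inhibition rate (%) scored at 14 days, in duplicate.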

[1] = test system: Echinochloa crus-galli var. formosensis; experiment: Test Example 2: herbicidal effect test by application during growth period of paddy rice; conditions: 120 g per 10 ares, applied seven days after sowing, flooded pots, 14 days after application; for inhibition at 1200 g/ha: Echinochloa crus-galli, read-out: weed inhibition rate
Outline: (§2)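 Herbicidal effect was scored 14 days after treatment, in duplicate per concentration. Weeds sown 0–1 cm deep in puddled, fertilized paddy soil under about 3 cm of standing water received a water-diluted emulsifiable concentrate by dropper 7 days post-sowing, at 120 g a.i. per 10 ares.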

[2] = test system: Echinochloa crus-galli var. formosensis; experiment: Test Example 1: herbicidal effect test by soil application in paddy rice; conditions: 120 g active ingredient per 10 ares, applied immediately after sowing, flooded pots, 14 days after application; for pest or weed control at 1200 g/ha: Echinochloa crus-galli, soil, 336 h, read-out: weed inhibition rate
Outline: (§3)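 Paddy soil in Wagner pots (1/10,000 acre) was fertilized (N:P:K 16:16:16) and puddled, then weed seeds were sown 0–1 cm deep, 30 each. Pots were flooded to ~3 cm and kept in a glass greenhouse. Emulsifiable concentrate diluted in water was dropped on immediately after sowing at 120 g a.i. per 10 ares.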

Digitaria ciliaris [3] = experiment: Test Example 4: herbicidal effect test by stem and leaf treatment in upland field; conditions: 120 g per 10 ares, sprayed seven days after sowing, upland soil, 14 days after application; for inhibition at 1200 g/ha: Digitaria ciliaris, read-out: weed inhibition rate
Echinochloa crus-galli [4] = experiment: as above; conditions: 120 g per 10 ares, sprayed seven days after sowing, upland soil, 14 days after application; for inhibition at 1200 g/ha: Echinochloa crus-galli, read-out: weed inhibition rate
Echinochloa crus-galli [5] = experiment: Test Example 3: herbicidal effect test by soil application in upland field; conditions: 120 g per 10 ares, sprayed one day after sowing, 14 days after application; for inhibition at 1200 g/ha: Echinochloa crus-galli, read-out: weed inhibition rate
Outline: as §1

Chenopodium album = experiment: as above; conditions: 120 g per 10 ares, sprayed one day after sowing, 14 days after application, read-out: weed inhibition rate
Outline: as §1

[6] = test system: Echinochloa crus-galli var. formosensis; experiment: Test Example 5: herbicidal effect test by soil application in paddy rice (low dose); conditions: 7.5 g per 10 ares, applied immediately after sowing, flooded pots, 14 days after application; for inhibition at 75 g/ha: Echinochloa crus-galli, soil, 336 h, read-out: weed inhibition rate
Outline: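 Dose of 7.5 g a.i. per 10 ares, applied by dropper as diluted emulsifiable concentrate to flooded (~3 cm) paddy pots immediately after sowing seeds at 0–1 cm. Kept in a glass greenhouse; duplicate pots rated at 14 days post-application.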

[7] = test system: Echinochloa crus-galli var. formosensis; experiment: Test Example 6: herbicidal effect test by application during growth period of paddy rice (low dose); conditions: 7.5 g per 10 ares, applied seven days after sowing, flooded pots, 14 days after application; for inhibition at 75 g/ha: Echinochloa crus-galli, read-out: weed inhibition rate
Outline: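 Paddy-soil pots, flooded ~3 cm after sowing weed seeds at 0-1 cm depth, greenhouse-grown. Seven days after sowing, diluted emulsifiable concentrate applied by dropper at 7.5 g active ingredient per 10 ares. Weed inhibition rate (%) scored 14 days after application, in duplicate.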

Digitaria ciliaris [8] = experiment: Test Example 8: herbicidal effect test by stem and leaf treatment in upland field (low dose); conditions: 7.5 g per 10 ares, sprayed seven days after sowing, upland soil, 14 days after application
Echinochloa crus-galli [9] = experiment: as above; conditions: 7.5 g per 10 ares, sprayed seven days after sowing, upland soil, 14 days after application; for inhibition at 75 g/ha: Echinochloa crus-galli, read-out: weed inhibition rate
Scirpus juncoides [10] = experiment: Test Example 1: herbicidal effect test by soil application in paddy rice; conditions: 120 g active ingredient per 10 ares, applied immediately after sowing, flooded pots, 14 days after application; for pest or weed control at 1200 g/ha: Schoenoplectiella juncoides, soil, 336 h, read-out: weed inhibition rate
Outline: as §3

Scirpus juncoides [11] = experiment: Test Example 5: herbicidal effect test by soil application in paddy rice (low dose); conditions: Schoenoplectiella juncoides, 336 h, 7.5 g per 10 ares, applied immediately after sowing, flooded pots, 14 days after application, read-out: weed inhibition rate
Description: (§4) The present test was conducted in duplicate for each chemical concentration group, and the weed inhibition rate (%) was determined 14 days after chemical application using the following formula (Math. 1). [formula]
(§5) Wagner pots with an area of […] were filled with paddy soil, followed by addition of water and incorporation of chemical fertilizer (N:P:K = 16:16:16), after which puddling was performed. After that, seeds of Echinochloa crus-galli var. formosensis, broad-leaved weeds (Monochoria vaginalis), and Scirpus juncoides were sown at a depth of 0 cm to 1 cm, 30 seeds each. Immediately after sowing, the pots were flooded and a water depth of approximately 3 cm was maintained. Subsequent management was conducted in a glass greenhouse. Immediately thereafter, an emulsifiable concentrate prepared according to Formulation Example 5 using the compound shown below was diluted with water, and a specified amount of the diluted solution was applied by dropper. The amount of the active ingredient to be applied was equivalent to 7.5 g per 10 ares.
The present test was conducted in duplicate for each chemical concentration group, and the herbicidal effect was evaluated 14 days after chemical application using the same criteria as in Test Example 1.

Monochoria vaginalis [12] = experiment: Test Example 1: herbicidal effect test by soil application in paddy rice; conditions: 120 g active ingredient per 10 ares, applied immediately after sowing, flooded pots, 14 days after application
Description: as §5, with “(Lindernia pyxidaria and Monochoria” for “(Monochoria”, “120” for “7.5”
as §4

Digitaria ciliaris [13] = experiment: Test Example 3: herbicidal effect test by soil application in upland field; conditions: 120 g per 10 ares, sprayed one day after sowing, 14 days after application
Outline: as §1

Digitaria ciliaris [14] = experiment: Test Example 7: herbicidal effect test by soil application in upland field (low dose); conditions: 7.5 g per 10 ares, sprayed one day after sowing, 14 days after application
Outline: (§6)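 Pre-emergence soil treatment: 7.5 g a.i. per 10 a applied as water-diluted emulsifiable concentrate (100 L/10 a) to soil surface one day post-sowing in alluvial loam. Inhibition (%) assessed at 14 days, duplicate pots per concentration.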

Echinochloa crus-galli [15] = experiment: as above; conditions: 7.5 g per 10 ares, sprayed one day after sowing, 14 days after application
Outline: as §6

Scirpus juncoides [16] = experiment: Test Example 2: herbicidal effect test by application during growth period of paddy rice; conditions: 120 g per 10 ares; applied seven days after sowing, flooded pots; 14 days after application
Outline: as §2

Monochoria vaginalis [17] = experiment: as above; conditions: 120 g per 10 ares; applied seven days after sowing, flooded pots; 14 days after application
Outline: as §2

[18] = Digitaria ciliaris, read-out: weed inhibition rate

COc1ccc(CO[C@@H]2C[C@]3(C(C)C)O[C@@]2(C)CC3=O)cc1 [2-346, (1R,4S,5R)-1-isopropyl-5-((4-methoxybenzyl)oxy)-4-methyl-7-oxabicyclo[2.2.1]heptan-2-one]
≥ 80%: inhibition at 1200 g/ha (Amaranthus viridis) | inhibition at 1200 g/ha [1]

CC(C)[C@]12C[C@@H](OCc3ccccc3F)[C@](C)(CC1c1ccccc1)O2 (stereo partly drawn) [1-322, (1S,2R,4R)-2-((2-fluorobenzyl)oxy)-4-isopropyl-1-methyl-5-phenyl-7-oxabicyclo[2.2.1]heptane]
≥ 80%: pest or weed control at 1200 g/ha [2] | inhibition at 1200 g/ha (Digitaria ciliaris [3]) | inhibition at 1200 g/ha (Echinochloa crus-galli [4]) | inhibition at 1200 g/ha (Echinochloa crus-galli [5]) | inhibition at 1200 g/ha (Chenopodium album) | inhibition at 1200 g/ha [1] | inhibition at 75 g/ha [6] | inhibition at 75 g/ha [7] | inhibition at 75 g/ha (Digitaria ciliaris [8]; [18]) | inhibition at 75 g/ha (Echinochloa crus-galli [9])

Cc1cccc(C2C[C@]3(C)O[C@@]2(C(C)C)C[C@H]3OCc2ccccc2F)c1 (stereo partly drawn) [1-926, (1S,2R,4R)-2-((2-fluorobenzyl)oxy)-4-isopropyl-1-methyl-5-(m-tolyl)-7-oxabicyclo[2.2.1]heptane]
≥ 80%: pest or weed control at 1200 g/ha (Scirpus juncoides [10]) | pest or weed control at 1200 g/ha [2] | inhibition at 1200 g/ha (Amaranthus viridis) | inhibition at 1200 g/ha (Echinochloa crus-galli [5]) | inhibition at 1200 g/ha (Chenopodium album) | inhibition at 1200 g/ha [1]

CC(C)[C@]12C[C@@H](OCc3ccccc3F)[C@](C)(CC1c1cccc(F)c1)O2 (stereo partly drawn) [1-923, (1S,2R,4R)-2-((2-fluorobenzyl)oxy)-5-(3-fluorophenyl)-4-isopropyl-1-methyl-7-oxabicyclo[2.2.1]heptane]
≥ 80%: pest or weed control at 1200 g/ha (Scirpus juncoides [10]) | pest or weed control at 1200 g/ha [2] | inhibition at 1200 g/ha (Echinochloa crus-galli [4]) | inhibition at 1200 g/ha (Echinochloa crus-galli [5]) | inhibition at 75 g/ha (Scirpus juncoides [11]) | inhibition at 1200 g/ha [1]

Cc1ccc(CO[C@@H]2C[C@]3(C(C)C)O[C@@]2(C)CC3=O)cc1 [2-350, (1R,4S,5R)-1-isopropyl-4-methyl-5-[(4-methylbenzyl)oxy]-7-oxabicyclo[2.2.1]heptan-2-one]
≥ 80%: pest or weed control at 1200 g/ha (Scirpus juncoides [10]) | pest or weed control at 1200 g/ha [2] | inhibition at 1200 g/ha (Digitaria ciliaris [3]) | pest or weed control at 1200 g/ha (Monochoria vaginalis [12]; Pontederia vaginalis, soil, 336 h, read-out: weed inhibition rate) | inhibition at 1200 g/ha (Echinochloa crus-galli [4]) | inhibition at 1200 g/ha (Digitaria ciliaris [13]; [18]) | inhibition at 1200 g/ha (Echinochloa crus-galli [5]) | inhibition at 1200 g/ha (Chenopodium album) | inhibition at 1200 g/ha [1] | inhibition at 75 g/ha [6] | inhibition at 75 g/ha [7] | inhibition at 75 g/ha (Echinochloa crus-galli [9])

CC(C)[C@]12C[C@@H](OCCOCc3ccccc3)[C@](C)(C[C@@H]1Br)O2 [1-725, (1S,2R,4R,5S)-5-bromo-1-methyl-2-(2-phenylmethoxyethoxy)-4-isopropyl-7-oxabicyclo[2.2.1]heptane]
≥ 80%: inhibition at 1200 g/ha (Echinochloa crus-galli [4]) | inhibition at 1200 g/ha (Amaranthus viridis) | inhibition at 1200 g/ha [1]

CC(C)[C@]12C[C@@H](OCc3ccccc3F)[C@](C)(C[C@@H]1Cl)O2 [1-12]
≥ 80%: weed inhibition rate (Scirpus juncoides [10]) | weed inhibition rate [2] | weed inhibition rate (Digitaria ciliaris [3]) | weed inhibition rate (Monochoria vaginalis [12]) | weed inhibition rate (Digitaria ciliaris [14]) | weed inhibition rate (Echinochloa crus-galli [15]) | weed inhibition rate (Echinochloa crus-galli [4]) | weed inhibition rate (Digitaria ciliaris [13]) | weed inhibition rate (Echinochloa crus-galli [5]) | weed inhibition rate (Scirpus juncoides [16]) | weed inhibition rate [1] | weed inhibition rate (Monochoria vaginalis [17]) | weed inhibition rate [6] | weed inhibition rate [7] | weed inhibition rate (Digitaria ciliaris [8]) | weed inhibition rate (Echinochloa crus-galli [9])

CCOC(C)O[C@H]1C[C@]2(C)O[C@@]1(C(C)C)C[C@H]2OCc1ccccc1F (stereo partly drawn) [1-213, (1R,28,4S,5R)-2-(1-ethoxyethoxy)-5-((2-fluorobenzyl)oxy)-1-isopropyl-4-methyl-7-oxabicyclo[2.2.1]heptane]
≥ 80%: weed inhibition rate (Scirpus juncoides [10]) | weed inhibition rate [2] | weed inhibition rate (Digitaria ciliaris [3]) | weed inhibition rate (Monochoria vaginalis [12]) | weed inhibition rate (Digitaria ciliaris [14]) | weed inhibition rate (Echinochloa crus-galli [15]) | weed inhibition rate (Echinochloa crus-galli [4]) | weed inhibition rate (Digitaria ciliaris [13]) | weed inhibition rate (Amaranthus viridis) | weed inhibition rate (Echinochloa crus-galli [5]) | weed inhibition rate (Scirpus juncoides [16]) | weed inhibition rate [1] | weed inhibition rate [6] | weed inhibition rate [7] | weed inhibition rate (Echinochloa crus-galli [9])
